Experimental data published in PMC6008489 (Bioorganic & Medicinal Chemistry, 2018).

How the values were obtained:
Type in all cases: biochemical
[1] = target: T1, CHK1 (Homo sapiens, UniProt O14757); test: 26-kinase panel mobility shift assay, single concentration; settings: read-out: % Inhibition CHK1
T1 construct: purchased Perkin Elmer ProfilerPro assay kit 1
T1 sequence (O14757 1-476): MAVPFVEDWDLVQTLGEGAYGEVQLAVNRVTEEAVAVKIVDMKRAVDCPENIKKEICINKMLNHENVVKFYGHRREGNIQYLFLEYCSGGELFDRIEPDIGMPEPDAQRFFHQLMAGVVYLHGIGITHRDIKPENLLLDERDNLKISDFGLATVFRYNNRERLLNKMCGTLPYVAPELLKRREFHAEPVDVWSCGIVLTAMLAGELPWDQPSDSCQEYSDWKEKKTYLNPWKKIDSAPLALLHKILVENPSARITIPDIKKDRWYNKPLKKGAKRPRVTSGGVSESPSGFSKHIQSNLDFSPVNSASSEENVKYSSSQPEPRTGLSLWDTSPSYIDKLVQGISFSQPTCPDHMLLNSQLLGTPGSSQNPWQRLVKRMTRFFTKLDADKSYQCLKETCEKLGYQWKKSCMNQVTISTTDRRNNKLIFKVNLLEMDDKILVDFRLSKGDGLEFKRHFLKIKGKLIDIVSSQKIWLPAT
Description: (§1) A mobility shift assay to determine kinase inhibition was carried out using a
(§2) modified version of the ProfilerPro assay kit 1 (Perkin Elmer, Coventry, UK)
(§3) including MPS1 and Aurora B. Each kit contained an enzyme plate, a substrate
(§4) plate, reconstitution buffer, 1 M DTT, protease inhibitor cocktail and termination
(§5) buffer. Test compounds were added as a solution in DMSO.
(§6) peptide phosphorylation assay was carried out as per the manufacturer’s
(§7) instructions. The electrophoretic separation and analysis of the phosphorylated
(§8) and non-phosphorylated peptides was carried out on a 4-sipper chip using a
(§9) LabChip EZReader II (Perkin Elmer). Results were expressed as % inhibition of
(§10) peptide phosphorylation relative to control wells for 0 % (no test compound) and
(§11) 100 % (no ATP) inhibition. The percentage inhibition was calculated using the
(§12) % Inhibition = [1 - (% Conversion Sample / % Conversion 0% Inhibition Control)] x 100

[2] = target: T2, GSK3b (Homo sapiens, UniProt P49841); test: as above; settings: read-out: % Inhibition GSK3
T2 construct: purchased Perkin Elmer (ProfilerPro assay kit 1)
Description: as §1, §2, §3, §4, §5, §6, §7, §8, §9, §10, §11, §12

[3] = target: T3, PKA (Homo sapiens, UniProt P17612); test: as above; settings: read-out: % Inhibition PKA
T3 construct: purchased Perkin Elmer (ProfilerPro assay kit 1)
Description: (§13) In order to test the biochemical activity of our fragment library, a panel of 26 structurally diverse protein kinases was used.
Mobility Shift Assay Protocol
(§14) Screening of 26 kinases using a mobility shift assay
as §1, §2, §3, §4, §5
final concentration. […] The
as §6, §7, §8, §9, §10, §11, §12

[4] = target: T4, PKD2 (Homo sapiens, UniProt Q9BZL6); test: as above; settings: read-out: % Inhibition PKD2
T4 construct: purchased Perkin Elmer (ProfilerPro assay kit 1)
T4 sequence (Q9BZL6 1-878): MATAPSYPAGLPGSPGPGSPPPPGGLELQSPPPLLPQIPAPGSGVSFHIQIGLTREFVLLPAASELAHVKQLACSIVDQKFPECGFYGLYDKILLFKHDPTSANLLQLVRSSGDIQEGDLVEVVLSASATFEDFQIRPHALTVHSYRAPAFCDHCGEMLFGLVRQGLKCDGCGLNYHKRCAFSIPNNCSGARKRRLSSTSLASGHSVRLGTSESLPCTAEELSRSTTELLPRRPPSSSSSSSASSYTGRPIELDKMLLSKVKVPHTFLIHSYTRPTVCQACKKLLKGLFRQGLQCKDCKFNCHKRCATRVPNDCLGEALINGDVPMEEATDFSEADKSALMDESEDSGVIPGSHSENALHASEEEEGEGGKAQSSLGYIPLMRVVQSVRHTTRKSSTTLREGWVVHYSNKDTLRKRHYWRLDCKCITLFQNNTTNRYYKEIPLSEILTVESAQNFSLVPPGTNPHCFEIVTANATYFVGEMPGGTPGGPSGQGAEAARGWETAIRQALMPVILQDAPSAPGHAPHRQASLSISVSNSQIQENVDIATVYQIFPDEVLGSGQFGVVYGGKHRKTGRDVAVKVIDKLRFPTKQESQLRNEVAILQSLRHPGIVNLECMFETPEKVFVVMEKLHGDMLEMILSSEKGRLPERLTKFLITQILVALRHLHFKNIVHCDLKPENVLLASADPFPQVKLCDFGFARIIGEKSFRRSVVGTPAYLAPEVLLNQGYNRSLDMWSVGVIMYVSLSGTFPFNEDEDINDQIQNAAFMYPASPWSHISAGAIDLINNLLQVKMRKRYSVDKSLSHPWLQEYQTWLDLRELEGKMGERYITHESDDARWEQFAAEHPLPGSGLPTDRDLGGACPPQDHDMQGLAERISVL
Description: as §13, §14, §1, §2, §3, §4, §5, §6, §7, §8, §9, §10, §11, §12

[5] = target: T5, CHK2 (Homo sapiens, UniProt O96017); test: as above; settings: read-out: % Inhibition CHK2
T5 construct: purchased Perkin Elmer (ProfilerPro assay kit 1)
Description: as §1, §2, §3, §4, §5, §6, §7, §8, §9, §10, §11, §12

[6] = target: T6, MET (Homo sapiens, UniProt P08581); test: as above; settings: read-out: % Inhibition MET
T6 construct: purchased Perkin Elmer (ProfilerPro assay kit 1)
Description: as §13
Mobility Shift Assay Protocol
as §14, §1, §2, §3, §4, §5
final concentration. […] The
as §6, §7, §8, §9, §10, §11, §12

[7] = target: T7, RSK1 (Homo sapiens, UniProt Q15418); test: as above; settings: read-out: % Inhibition RSK1
T7 construct: purchased Perkin Elmer (ProfilerPro assay kit 1)
Description: Mobility Shift Assay Protocol
as §14, §1, §2, §3, §4, §5, §6, §7, §8, §9, §10, §11, §12

[8] = target: T8, PKCζ (Homo sapiens, UniProt Q05513); test: as above; settings: read-out: % Inhibition PKC
T8 construct: purchased Perkin Elmer (ProfilerPro assay kit 1)
T8 sequence (Q05513 1-592): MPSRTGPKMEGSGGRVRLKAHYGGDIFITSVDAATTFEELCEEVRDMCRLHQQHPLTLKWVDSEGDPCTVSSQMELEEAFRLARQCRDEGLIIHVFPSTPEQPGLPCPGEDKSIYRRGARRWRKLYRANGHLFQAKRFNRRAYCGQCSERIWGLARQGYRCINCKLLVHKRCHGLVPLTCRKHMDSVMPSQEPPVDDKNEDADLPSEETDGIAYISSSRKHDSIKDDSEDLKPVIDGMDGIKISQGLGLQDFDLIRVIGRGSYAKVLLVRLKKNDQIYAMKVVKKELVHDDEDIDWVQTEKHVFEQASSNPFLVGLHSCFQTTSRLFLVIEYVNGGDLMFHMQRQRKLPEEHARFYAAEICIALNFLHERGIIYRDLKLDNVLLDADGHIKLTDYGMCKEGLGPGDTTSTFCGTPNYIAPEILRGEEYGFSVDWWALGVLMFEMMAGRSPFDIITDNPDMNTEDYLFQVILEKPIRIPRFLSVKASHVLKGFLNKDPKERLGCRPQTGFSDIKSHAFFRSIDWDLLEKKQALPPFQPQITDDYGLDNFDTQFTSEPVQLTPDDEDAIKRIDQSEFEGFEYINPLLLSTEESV
Description: as §13
Mobility Shift Assay Protocol
as §14, §1, §2, §3, §4, §5
final concentration. […] The
as §6, §7, §8, §9, §10, §11, §12

[9] = target: T9, LYN (Homo sapiens, UniProt P07948); test: as above; settings: read-out: % Inhibition LYN
T9 construct: purchased Perkin Elmer (ProfilerPro assay kit 1)
Description: as §1, §2, §3, §4, §5, §6, §7, §8, §9, §10, §11, §12

[10] = target: T10, Aurora A (Homo sapiens, UniProt O14965); settings: for Ki: calculated from mean IC50 using the Cheng-Prusoff equation, read-out: AurA Ki; for AurA ligand efficiency (LE): from Ki
T10 sequence (O14965 1-403): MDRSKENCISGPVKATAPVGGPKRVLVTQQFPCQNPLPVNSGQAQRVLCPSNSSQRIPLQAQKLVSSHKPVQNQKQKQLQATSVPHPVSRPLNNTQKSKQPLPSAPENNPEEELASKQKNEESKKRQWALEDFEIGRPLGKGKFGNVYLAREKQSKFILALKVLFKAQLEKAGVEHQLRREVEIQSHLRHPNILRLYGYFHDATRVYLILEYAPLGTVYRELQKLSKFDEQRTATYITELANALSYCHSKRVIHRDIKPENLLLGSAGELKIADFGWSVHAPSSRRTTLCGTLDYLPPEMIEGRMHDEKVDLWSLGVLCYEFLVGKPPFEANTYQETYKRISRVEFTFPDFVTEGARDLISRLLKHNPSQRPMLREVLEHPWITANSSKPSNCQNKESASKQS
Description: IC50 values were obtained for an expanded version of the fragment library using the previously described mobility shift assay.[44] Subsequently, Ki values were estimated from IC50 values to allow better comparison of the activity against targets which were measured at different substrate concentrations (Supplementary data Table 1).
IC50 values for MPS1, Aurora A and Aurora B inhibition were determined as previously described,[44] and Ki values were estimated from the mean IC50 values using the Cheng-Prusoff equation.[48]
Kinase [ATP] (M) [Enzyme] (nM) [Peptide Substrate] (M) MgCl2 (mM)
For all compounds, IC50 values for MPS1, Aurora A, and Aurora B were determined
using MPS1 and Aurora A/B mobility shift assays as described previously.1 IC50
values were calculated from a four-parameter logistic fit of percentage inhibition
versus concentration (at 8 compound concentrations) using GraphPad Prism 5
(GraphPad Software, Inc., CA, USA). Mean IC50 values were determined from two
independent measurements each carried out in duplicate. Ki values were estimated
from the mean IC50 values using the Cheng-Prusoff equation.

T2 sequence (P49841 whole entry): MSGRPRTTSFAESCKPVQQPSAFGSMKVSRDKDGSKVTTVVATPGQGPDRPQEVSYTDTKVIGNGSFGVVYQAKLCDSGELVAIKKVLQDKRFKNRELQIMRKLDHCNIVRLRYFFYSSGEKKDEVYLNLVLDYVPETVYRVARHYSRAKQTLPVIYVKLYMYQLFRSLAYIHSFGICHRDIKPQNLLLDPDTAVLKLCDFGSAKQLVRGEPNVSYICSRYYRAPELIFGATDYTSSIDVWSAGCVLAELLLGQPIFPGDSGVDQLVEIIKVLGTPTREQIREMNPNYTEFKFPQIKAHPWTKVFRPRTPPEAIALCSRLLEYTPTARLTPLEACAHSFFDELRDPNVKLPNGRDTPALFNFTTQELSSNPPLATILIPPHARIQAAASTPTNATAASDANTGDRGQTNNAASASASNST
T7 sequence (Q15418 whole entry): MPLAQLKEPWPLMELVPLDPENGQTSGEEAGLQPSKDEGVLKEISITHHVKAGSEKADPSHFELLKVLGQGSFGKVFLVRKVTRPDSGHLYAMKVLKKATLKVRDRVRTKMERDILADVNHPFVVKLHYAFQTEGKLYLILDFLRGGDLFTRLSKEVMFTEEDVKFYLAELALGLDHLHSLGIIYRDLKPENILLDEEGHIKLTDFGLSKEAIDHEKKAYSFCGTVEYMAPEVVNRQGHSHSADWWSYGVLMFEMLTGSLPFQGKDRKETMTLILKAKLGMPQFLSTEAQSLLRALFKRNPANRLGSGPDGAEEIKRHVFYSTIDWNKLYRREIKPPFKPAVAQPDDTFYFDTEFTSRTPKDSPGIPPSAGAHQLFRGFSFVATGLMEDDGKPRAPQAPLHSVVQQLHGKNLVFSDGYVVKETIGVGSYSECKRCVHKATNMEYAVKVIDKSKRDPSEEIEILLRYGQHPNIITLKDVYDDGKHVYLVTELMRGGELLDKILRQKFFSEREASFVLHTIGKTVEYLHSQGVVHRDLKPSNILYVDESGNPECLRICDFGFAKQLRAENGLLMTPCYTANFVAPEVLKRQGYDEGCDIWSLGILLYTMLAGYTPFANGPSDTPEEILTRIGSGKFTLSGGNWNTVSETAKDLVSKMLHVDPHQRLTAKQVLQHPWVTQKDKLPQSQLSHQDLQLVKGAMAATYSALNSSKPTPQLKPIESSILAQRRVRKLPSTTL
T5 sequence (O96017 whole entry): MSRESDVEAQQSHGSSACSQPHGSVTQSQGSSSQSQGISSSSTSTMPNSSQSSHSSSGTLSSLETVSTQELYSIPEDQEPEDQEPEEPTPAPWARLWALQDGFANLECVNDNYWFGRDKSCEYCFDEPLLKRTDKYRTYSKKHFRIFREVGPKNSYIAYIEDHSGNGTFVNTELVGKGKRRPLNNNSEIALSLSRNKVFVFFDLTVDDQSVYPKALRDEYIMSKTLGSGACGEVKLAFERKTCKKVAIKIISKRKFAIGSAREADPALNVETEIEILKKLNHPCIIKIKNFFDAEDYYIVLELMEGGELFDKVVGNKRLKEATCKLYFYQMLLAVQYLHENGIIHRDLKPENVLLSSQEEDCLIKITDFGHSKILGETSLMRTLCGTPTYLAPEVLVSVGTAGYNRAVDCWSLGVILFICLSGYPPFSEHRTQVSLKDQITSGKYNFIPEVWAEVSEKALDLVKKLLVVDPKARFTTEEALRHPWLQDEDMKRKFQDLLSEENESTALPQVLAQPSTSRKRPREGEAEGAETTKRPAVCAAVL
T6 sequence (P08581 25-1390): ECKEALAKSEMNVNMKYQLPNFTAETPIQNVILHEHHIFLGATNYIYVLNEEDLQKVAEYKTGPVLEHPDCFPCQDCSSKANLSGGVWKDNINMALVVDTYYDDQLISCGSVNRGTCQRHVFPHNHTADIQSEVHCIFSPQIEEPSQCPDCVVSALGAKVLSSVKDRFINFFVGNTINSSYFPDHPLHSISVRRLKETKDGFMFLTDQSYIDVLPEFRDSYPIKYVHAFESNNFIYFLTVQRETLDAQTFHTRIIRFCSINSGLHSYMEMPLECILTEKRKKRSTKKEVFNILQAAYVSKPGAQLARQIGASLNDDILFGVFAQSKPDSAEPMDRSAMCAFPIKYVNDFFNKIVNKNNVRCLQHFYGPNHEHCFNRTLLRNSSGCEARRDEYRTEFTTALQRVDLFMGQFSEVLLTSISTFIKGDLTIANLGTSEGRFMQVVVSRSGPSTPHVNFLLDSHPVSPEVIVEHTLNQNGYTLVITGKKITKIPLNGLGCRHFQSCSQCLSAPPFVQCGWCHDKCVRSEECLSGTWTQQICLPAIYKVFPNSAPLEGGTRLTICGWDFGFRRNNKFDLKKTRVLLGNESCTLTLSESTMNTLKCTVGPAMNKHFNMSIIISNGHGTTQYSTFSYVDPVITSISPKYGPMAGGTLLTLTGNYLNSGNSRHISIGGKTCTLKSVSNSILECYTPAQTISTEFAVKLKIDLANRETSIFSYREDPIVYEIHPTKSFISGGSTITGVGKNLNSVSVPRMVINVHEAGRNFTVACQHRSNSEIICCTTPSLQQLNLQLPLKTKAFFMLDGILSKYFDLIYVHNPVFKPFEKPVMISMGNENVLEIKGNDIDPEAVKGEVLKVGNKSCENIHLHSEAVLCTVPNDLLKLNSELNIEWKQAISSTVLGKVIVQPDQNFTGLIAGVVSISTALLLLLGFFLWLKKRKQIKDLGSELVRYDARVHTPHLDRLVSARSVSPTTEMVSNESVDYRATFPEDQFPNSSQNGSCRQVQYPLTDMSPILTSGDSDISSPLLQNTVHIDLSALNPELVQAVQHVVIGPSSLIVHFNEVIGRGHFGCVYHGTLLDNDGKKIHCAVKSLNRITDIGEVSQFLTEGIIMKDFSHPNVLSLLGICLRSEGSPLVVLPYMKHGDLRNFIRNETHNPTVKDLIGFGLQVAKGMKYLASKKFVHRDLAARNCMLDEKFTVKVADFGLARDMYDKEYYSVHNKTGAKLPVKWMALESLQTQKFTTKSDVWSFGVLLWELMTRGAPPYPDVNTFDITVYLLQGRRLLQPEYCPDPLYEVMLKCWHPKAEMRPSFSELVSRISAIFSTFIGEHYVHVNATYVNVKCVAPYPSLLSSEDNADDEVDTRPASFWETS
T9 sequence (P07948 whole entry): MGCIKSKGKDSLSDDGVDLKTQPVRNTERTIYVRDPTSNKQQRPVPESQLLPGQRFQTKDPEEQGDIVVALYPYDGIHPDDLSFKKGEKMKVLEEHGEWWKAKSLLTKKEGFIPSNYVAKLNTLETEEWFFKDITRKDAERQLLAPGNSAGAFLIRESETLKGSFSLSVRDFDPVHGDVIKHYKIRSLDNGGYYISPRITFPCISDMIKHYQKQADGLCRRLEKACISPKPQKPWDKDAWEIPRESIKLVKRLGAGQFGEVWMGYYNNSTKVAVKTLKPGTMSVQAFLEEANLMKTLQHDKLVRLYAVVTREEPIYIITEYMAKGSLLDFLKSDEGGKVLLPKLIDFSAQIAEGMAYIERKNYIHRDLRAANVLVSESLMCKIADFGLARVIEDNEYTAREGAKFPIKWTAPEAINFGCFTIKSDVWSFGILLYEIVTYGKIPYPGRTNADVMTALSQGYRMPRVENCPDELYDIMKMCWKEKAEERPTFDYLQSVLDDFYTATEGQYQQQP

| Compound | inhibition at 100 µM [1] [%] | inhibition at 100 µM [2] [%] | inhibition at 100 µM [3] [%] | inhibition at 100 µM [4] [%] | inhibition at 100 µM [5] [%] | inhibition at 100 µM [6] [%] | inhibition at 100 µM [7] [%] | inhibition at 100 µM [8] [%] | inhibition at 100 µM [9] [%] | Ki [10] [µM] | AurA ligand efficiency (LE) [10] | inhibition at 30 µM [1] [%] | inhibition at 30 µM [2] [%] | inhibition at 30 µM [3] [%] | inhibition at 30 µM [4] [%] | inhibition at 30 µM [5] [%] | inhibition at 30 µM [6] [%] | inhibition at 30 µM [7] [%] | inhibition at 30 µM [8] [%] | inhibition at 30 µM [9] [%] |
| --- | --- | --- | --- | --- | --- | --- | --- | --- | --- | --- | --- | --- | --- | --- | --- | --- | --- | --- | --- | --- |
| Nc1ccc[nH]c1=O [Compound 1, 3-aminopyridin-2-one] | 37 | 17 | 0 | 10 | 49 | 33 | 19 | 27 | 15 | 361 | 0.59 | – | – | – | – | – | – | – | – | – |
| Cn1cc(-c2c[nH]c(=O)c(N)c2)cn1 [Compound 2, 3-Amino-5-(1-methyl-1H-pyrazol-4-yl)pyridin-2(1H)-one] | 77 | 68 | 66 | 67 | 99 | 81 | 89 | 83 | 49 | 7.5 | 0.53 | – | – | – | – | – | – | – | – | – |
| COc1ncc(-c2ccncc2)cc1N [Compound 5, 6-Methoxy-3,4′-bipyridin-5-amine] | 1 | 26 | 52 | 26 | 36 | 18 | 23 | 5 | 15 | 185 | 0.31 | – | – | – | – | – | – | – | – | – |
| Nc1cc(-c2ccnc3ccccc23)c[nH]c1=O [Compound 6] | 26 | 20 | 48 | 36 | 57 | 19 | 10 | 17 | 27 | 76.3 | 0.31 | – | – | – | – | – | – | – | – | – |
| CNc1nccc(-c2c[nH]c(=O)c(N)c2)n1 [Compound 7] | 79 | 89 | 81 | 70 | 98 | 76 | 91 | 37 | 63 | 21.3 | 0.40 | – | – | – | – | – | – | – | – | – |
| Nc1cc(-c2ccnc(NC3CC3)n2)c[nH]c1=O [Compound 8] | 26 | 87 | 8 | 81 | 61 | 26 | 89 | 0 | 42 | 30.2 | 0.34 | – | – | – | – | – | – | – | – | – |
| Cc1nc(O)c(N)cc1-c1ccncc1 [Compound 15, 3-Amino-6-methyl-5-(pyridin-4-yl)pyridin-2-one] | 4 | 39 | 0 | 8 | 42 | 14 | 17 | 13 | 10 | > 100 | – | – | – | – | – | – | – | – | – | – |
| O=C(Nc1cc(-c2ccncc2)c[nH]c1=O)c1ccccc1 [Compound 16, N-(2-Oxo-5-(pyridin-4-yl)-1,2-dihydropyridin-3-yl)benzamide] | – | – | – | – | – | – | – | – | – | 3.3 | 0.34 | 24 | 92 | 0 | 30 | 29 | 9 | 19 | 0 | 55 |
| CN1CCN(c2ccc(C(=O)Nc3cc(-c4ccncc4)c[nH]c3=O)cc2)CC1 [Compound 22] | – | – | – | – | – | – | – | – | – | 14.9 | 0.23 | 84 | 94 | 0 | 46 | 33 | 24 | 41 | 24 | 93 |
| O=C(Nc1cc(-c2ccnc(NC3CC3)n2)c[nH]c1=O)c1ccccc1 [Compound 24] | – | – | – | – | – | – | – | – | – | 17.3 | 0.25 | 0 | 99 | 75 | 69 | 71 | 65 | 98 | 0 | 86 |
